The record followed here is a compilation of properties of binary mixtures (doi:10.1007/s10953-017-0608-9).

The structures appear in SMILES notation. Values joined by “and” are separate entries in the source; they are usually repeats but may differ in a detail not shown here. Equal values may be shown once.

The data set in a line: xn = mol fraction of the nth substance listed. The conditions noted are these: 101 kPa.

For `CCCCCCCCn1cc[n+](C)c1.[Br-]` + O, the electrical conductivity is 0.029 S/m and 0.0557 S/m (288.15 K, x1 = 0.0001); 0.0822 S/m (288.15 K, x1 = 0.0002); 0.0353 S/m and 0.0696 S/m (298.15 K, x1 = 0.0001); 0.0426 S/m and 0.0846 S/m (308.15 K, x1 = 0.0001). The viscosity reads like this: (288.15 K, x1 = 0.0002) 1.158 mPa·s; (298.15 K, x1 = 0.0001) 0.896 mPa·s; (308.15 K, x1 = 0.0001) 0.725 mPa·s and 0.73 mPa·s.
